Tests used:
fetal islet β cells = experiment: Global cell death / mortality of cultured fetal islets (ethidium bromide permeability); assay type: cell-based; conditions: SNP (100 μmol/l); pre-treated with taurine 0.3 or 3 mmol/l; both diet groups; dose dependent
Description: Global cell death. Global cell death was analysed using a non-specific staining permeant probe. For this purpose, the culture medium was removed and the dishes were incubated in the dark with 1 ml of 20 μg/ml ethidium bromide for 20 min to stain permeabilized dead cells. The cultures were then fixed with 4% paraformaldehyde in PBS for 10 min, treated with 30% methanol for permeabilization of the remaining of the cells and then mounted in mowiol containing 20 μg/ml of Hoechst 33342, to stain the nuclei.
Physiological and supraphysiological levels of each amino acid were tested. Taurine, if present was either 0.3 mmol/l (physiological) or 3 mmol/l (supraphysiological); methionine, if present was either 0.1 mmol/l (physiological) or 1 mmol/l (supraphysiological); and β-alanine, if present was either 0.3 mmol/l (physiological) or 3 mmol/l (supraphysiological). Supplemental amino acid levels were maintained in the culture medium during SNP treatment. […] Apoptosis was quantified by confocal microscopy using the TUNEL method described in Example 1. Mortality rate was quantified by confocal microscopy using permeant probes, as described in Example 1, to verify quantification of apoptotic rate for both C and LP diet treatments including SNP and taurine.

islet cells [1] = experiment: Islet cell proliferation with maternal dietary taurine supplementation (BrdU immunostaining); assay type: in vivo, Wistar rats
Description: Adult virgin female Wistar rats were caged overnight with males and copulation was verified the next morning. Animals were maintained at 25° C. with a 10 h-14 h dark-light cycle. Pregnant rats were divided into four groups and fed one of the following isocaloric diets, either with or without taurine supplemented in the drinking water. […] The composition of the basal and low protein diets were described previously by Snoeck et a/.1990 (Biol. Neonate 57, 107-118). The diets were purchased from Hope Farms (Woerden, Holland). Animals in both the groups had free access to water at all times. Animals were divided into four groups to assess various parameters at different time periods. Females were sacrificed at 21.5 days of gestation by decapitation and fetuses were removed in order to evaluate parameters at fetal day 21.5 (F 21.5). Alternatively, animals gave birth and offspring were sacrificed at post-natal day 12, 14 or 30 (PN 12, PN 14, and PN 30, respectively). Bromodeoxyuridine (BrdU) incorporation was evaluated by immunostaining as described by […] et al., (Endocrinology 1999;140: 4861-4873).

Fas = experiment: Islet Fas immunoreactivity with dietary taurine supplementation; assay type: in vivo, Wistar rats; conditions: post-natal day 14
Description: Animals and diets were prepared as described in Example 8. The pancreas was removed, and the presence of Fas, Fas ligand, inducible nitric oxide synthase (iNOS) and vascular endothelial growth factor (VEGF) were evaluated in pancreatic sections using immunoreactivity.

fetal islets = experiment: Interaction of dietary and in vitro taurine on SNP- or IL1β-induced apoptosis of fetal islets; assay type: cell-based, Wistar rats
Description: Animals and diets were prepared as described in Example 7. Pancreases were removed and islets were isolated from late gestation fetuses at day 21.5. Neoformed fetal islets obtained after five days of culture from the four diet groups (C, C+Taurine, LP, and LP+Taurine) were compared for their susceptibility to apoptosis following exposure to SNP (100 μmol/l), or IL1β (50 U/ml), with or without in vitro taurine at either physiological (0.3 mmol/l) or supraphysiological (3.0 mmol/l) levels.

NOD mice = experiment: Insulitis in NOD mice at 12 weeks after taurine in maternal drinking water (pregnancy and lactation); assay type: in vivo; conditions: for reduction of incidence of insulitis: 12 weeks of age, vs control animals
Excerpt: Pregnant NOD mice were maintained on a control diet either with or without taurine supplementation in the drinking water throughout pregnancy and lactation. Supplementation of taurine was stopped after weaning. At 12 weeks of age the animals were killed and examined for histological evidence of insulitis within the pancreatic islets. Mice which were examined and found to have evidence of insulitis, were then further scored as peri-islet (slight), less than 50% area of islet (medium) or more than 50% islet area (heavy), as indicative of the stage and/or severity of insulitis.

islet cells [2] = experiment: Islet cell apoptosis with maternal dietary taurine supplementation (TUNEL); assay type: in vivo, Wistar rats
Description: Animals and diets were prepared, and taurine supplementation in drinking water was conducted as described in Example 7. Islet cells were cultured and treated as described in Example 1. Islet cell apoptosis was determined using the TUNEL method, as described by […] et al., (Endocrinology 1999;140: 4861-4873). Four developmental stages were evaluated, namely: fetal day 21.5 ([…].5) or post-natal day 12 (PN12), 14 (PN14) or 30 (PN30).

SMILES: NCCS(=O)(=O)O [taurine, 2-aminoethylsulfonic acid]
- mortality after treatment with SNP, percentage of cell death (fetal islet β cells): significantly diminished
- β cell proliferation rate (BrdU incorporation) (islet cells [1]; C+Taurine, 2.5% taurine in maternal drinking water): did not significantly increase
- islet cell proliferation rate (BrdU incorporation) (islet cells [1]; LP+Taurine, 2.5% (weight/volume) taurine in maternal drinking water): restore the proliferation rate to a level not significantly different from the control diet
- immunoreactive Fas within islets (Fas): reduced
- increased apoptotic response of LP fetal islets to SNP or IL1β (fetal islets; co-incubation with taurine in vitro (0.3 or 3.0 mmol/l)): reversed
- SNP-induced and IL 1β-induced apoptosis in fetal islets (fetal islets; dietary taurine in low protein diet combined with high local taurine in vitro): synergistically decrease
- increased apoptotic response of LP fetal islets to SNP or IL1β (fetal islets; maternal supplementation with taurine in vivo): reversed
- proportion of individual islets showing no incidence of insulitis (NOD mice; female animals exhibiting insulitis, C+Taurine (65% in control diet group)): approximately 50%
- severity of insulitis when it occurs (NOD mice; female mice exhibiting insulitis, 12 weeks): not lessened
- reduction of incidence of insulitis (NOD mice; female mice): 80%
- reduction of incidence of insulitis (NOD mice; male mice): 60%
- islet cell apoptosis (islet cells [2]; LP+Taurine vs control group (C), F21.5, PN12, PN14, PN30): either no difference, or a reduction in apoptosis compared to the control group
- islet cell apoptosis (islet cells [2]; protein-sufficient (C) animals supplemented with taurine, post-natal days 12 and 14): reduction in apoptosis
